{"source": "patent US11331272B2", "about": "“Hyperstabilized liposomes increase targeting of mitotic cells” (TEMASEK LIFE SCIENCES LABORATORY LIMITED, priority 2017, dated 2022)", "key": {"[1]": {"assay": "Toxicity / body weight in HCT116 xenografted mice", "conditions": "NCr Nude, mouse, in vivo, intravenous, tail vein injection, read-out: maximum tolerated dose", "description": "(§1) Free BI 2536 (dissolved in 0.1 N HCl, saline) or the indicated liposomal BI 2536 formulations were administered by slow tail vein injection 7 days post grafting with HCT116. Tumor volumes were at least 150 mm^3 and calculated using length×width^2×0.5. All measurements were performed using vernier calipers and mice were weighed every other day. Mice were subcutaneously hydrated with 1 ml Hartmann's solution daily for 5 days post treatment to ensure that the mice were fully hydrated."}, "[2]": {"system": "HCT116 xenografts", "assay": "Efficacy study in HCT116 xenografted mice (tumor volume, complete responses, survival)", "format": "in vivo, NCr Nude mice", "conditions": "free 100 mg/kg, responders/treated mice", "description": "All animal experiments were approved by the Institutional Animal Care and Use Committee of Temasek Life Sciences Laboratory and National University of Singapore (NUS). Female NCr Nude mice (Ages 5-8 weeks) were purchased from (Singapore/InVivos) and subcutaneously xenografted with HCT116 cells. HCT116 cells were grown as described above in 600 cm^2 dishes (Corning) and each dish was used to graft 5 mice when confluence reached ˜80%.\nas §1"}, "[3]": {"assay": "Hexanol extraction of BI 2536 from salt solutions", "format": "physicochemical", "conditions": "pH 3", "description": "BI 2536 was first dissolved in ethanol and then coated onto 1.5 ml microfuge tubes by spin drying. BI 2636-coated tubes were then further dried overnight under high vacuum before resuspending in the indicated salt solutions to achieve a final concentration of 500 μM. To ensure complete dissolution of coated BI2536, tubes were briefly vortexed and subjected to bath sonication for 1 minute before being used for characterization.\nBI 2536 from 1 ml of the indicated buffer was extracted with 100 μl 1-hexanol (Merck) by brief shaking for 1 hour. Hexanol and buffer layers were separated by brief centrifugation and 20 ul of the hexanol layer was analyzed for fluorescence intensity using the Tecan plate reader (Ex: 330 nm, Em: 370 nm)."}}, "data": [{"smiles": "CC[C@@H]1C(=O)N(C)c2cnc(Nc3ccc(C(=O)NC4CCN(C)CC4)cc3OC)nc2N1C1CCCC1", "note": "[Free Drug, BI 2536]", "values": [{"measurement": "MTD", "setting": "[1]", "value": 100, "unit": "mg/kg"}, {"measurement": "Complete Responses, Double Dose", "setting": "[2]; doses at days 0 and 7, liposomal 340 mg/kg", "value": "0/8"}, {"measurement": "Complete Responses, Single Dose", "setting": "[2]; single dose at day 0, liposomal 340 mg/kg", "value": "0/10"}, {"measurement": "hexanol-extraction efficiency as anion concentration rises", "setting": "[3]; anions M, C, H", "value": "decreased"}, {"measurement": "hexanol-extraction efficiency as anion concentration rises", "setting": "[3]; anions P, A", "value": "increased"}]}]}
